The subject of assay [1] is HTT mRNA. The assay is described as follows: Splicing RT-qPCR assay, HTT canonical (CJ) and alternative (AJ) junction mRNA. The assay is classed as cell-based, human. The settings on record: Homo sapiens, A673 or K562 cells, 24 hours compound treatment; for IC50: 24 h, read-out: HTT CJ (IC50, decrease in canonical junction mRNA); for AC50: read-out: HTT AJ (AC50, increase in alternative junction mRNA). The protocol: (§1) Compounds described herein were used to modulate RNA transcript abundance in cells. The expression of a target mRNA was measured by detecting the formation of an exon-exon junction in the canonical transcript (CJ). A compound mediated exon-inclusion event was detected by observing an increase in formation of a new junction with an alternative exon (AJ). Real-time qPCR assays were used to detect these splicing switches and interrogate the potency of various compounds towards different target genes. A high-throughput real time quantitative PCR (RT-qPCR) assay was developed to measure these two isoforms of the mRNA (CJ and AJ) for exemplary genes, such as HTT, SMN2, and MYB, together with a control housekeeping gene, GAPDH or GUSB or PPIA, used for normalization. Briefly, the A673 or K562 cell line was treated with various compounds described herein (e.g., compounds of Formula (I)). After treatment, the levels of the HTT, MYB, or SMN2 mRNA targets were determined from each sample of cell lysate by cDNA synthesis followed by qPCR.
(§2) • Cells-to-CT 1-step kit: ThermoFisher A25602, Cells-to-CT lysis reagent: ThermoFisher 4391851C, TaqMan™ Fast Virus 1-Step Master Mix: ThermoFisher 4444436 • GAPDH: VIC-PL, ThermoFisher 4326317E (Assay: Hs99999905_m1)—used for K562/suspension cell lines • GUSB: VIC-PL, ThermoFisher 4326320E (Assay: Hs99999908_m1)—used for K562/suspension cell lines • PPIA: VIC-PL, ThermoFisher 4326316E (Assay: Hs99999904_m1)—used for A673/adherent cell lines
(§3) The A673 cell line was cultured in DMEM with 10% FBS. Cells were diluted with full growth media and plated in a 96-well plate (15,000 cells in 100 ul media per well). The plate was incubated at 37° C. with 5% CO2 for 24 hours to allow cells to adhere. An 11-point 3-fold serial dilution of the compounds was made in DMSO then diluted in media in an intermediate plate. Compounds were transferred from the intermediate plate to the cell plate with the top dose at a final concentration of 10 uM in the well. Final DMSO concentration was kept at or below 0.25%. The cell plate was returned to the incubator at 37° C. with 5% CO2 for an additional 24 hours.
(§4) The K562 cell line was cultured in IMDM with 10% FBS. For K562, cells were diluted with full growth media and plated in either a 96-well plate (50,000 cells in 50 uL media per well) or a 384-well plate (8,000-40,000 cells in 45 uL media per well). An 11-point 3-fold serial dilution of the compounds were made in DMSO then diluted in media in an intermediate plate. Compound was transferred from the intermediate plate to the cell plate with the top dose at a final concentration of 10 uM in the well. Final DMSO concentration was kept at or below 0.25%. Final volume was 100 uL for 96-well plate and 50 uL for 384-well plate. The cell plate was then placed in an incubator at 37° C. with 5% CO2 for 24 hours.
(§5) The cells were then gently washed with 50 uL-100 uL cold PBS before proceeding to addition of lysis buffer. 30 uL-50 uL of room temperature lysis buffer with DNAse I (and optionally RNAsin) was added to each well. Cells were shaken/mixed thoroughly at room temperature for 5-10 minutes for lysis to take place and then 3 uL-5 uL of room temperature stop solution was added and wells were shaken/mixed again. After 2-5 minutes, the cell lysate plate was transferred to ice for RT-qPCR reaction setup. The lysates could also be frozen at −80° C. for later use.
(§6) In some cases, a direct lysis buffer was used. An appropriate volume of 3× lysis buffer (10 mM Tris, 150 mM NaCl, 1.5%-2.5% Igepal and 0.1-1 U/uL RNAsin, pH 7.4) was directly added to either K562 or A673 cells in media and mixed by pipetting 3 times. The plates were then incubated at room temperature with shaking/rocking for 20-50 minutes to allow for lysis to take place. After this time, the cell lysate plate was transferred to ice to set up for the RT-qPCR reactions. The lysates could also be frozen at −80° C. for later use. […]
A general note: Real-time PCR tracks product formation cycle by cycle.

Assay [2] concerns MYB mRNA. The assay is described as follows: Splicing RT-qPCR assay, MYB canonical (CJ) and alternative (AJ) junction mRNA. Type of assay: cell-based, human. The settings on record: Homo sapiens, 24 h, A673 or K562 cells, 24 hours compound treatment, RT-qPCR; for AC50: read-out: MYB AJ (AC50, increase in alternative junction mRNA); for IC50: read-out: MYB CJ (IC50, decrease in canonical junction mRNA). The protocol: as §1, §2, §3, §4, §5, §6

Here are results for 16 compounds from patent US20250154169A1, “COMPOUNDS AND METHODS FOR MODULATING SPLICING” (REMIX THERAPEUTICS INC., priority 2021, published 2025).

Each structure is given as a SMILES string.

The term IC50 denotes the concentration that gives 50% inhibition. By AC50 is commonly meant the concentration giving half of the maximal activity seen. Regarding `CCn1cc2c(N3CC[C@H](NC)C3)cc(F)c(C(=O)Nc3cc(F)c4nc(C)cn4c3)c2n1` [Compound 478, 2-ethyl-6-fluoro-N-{8-fluoro-2-methylimidazo[1,2-a]pyridin-6-yl}-4-[(3S)-3-(methylamino)pyrrolidin-1-yl]indazole-7-carboxamide; bis(trifluoroacetic acid)], in assay [1], the IC50 lay in the range of 1000 to 10000 nM and the AC50 was more than 10000 nM. Moreover, in assay [2], the AC50 lay within 100 to 1000 nM and the IC50 is less than 100 nM.
Consider `CCn1cc2c(N3CC[C@@H](NC)C3)cc(F)c(C(=O)Nc3cc(F)c4nc(C)cn4c3)c2n1` [Compound 479, 2-ethyl-6-fluoro-N-{8-fluoro-2-methylimidazo[1,2-a]pyridin-6-yl}-4-[(3R)-3-(methylamino)pyrrolidin-1-yl]indazole-7-carboxamide; trifluoroacetic acid], for which the results for the IC50 in assay [1] and in assay [2] were 1000 to 10000 nM and less than 100 nM, respectively. Besides, the AC50 in assay [1] is 1000 to 10000 nM; in assay [2], less than 100 nM.
As for `CCn1cc2c(N3CCN(C)CC3)cc(F)c(C(=O)Nc3cc(F)c4nc(C)cn4c3)c2n1` [Compound 481, 2-ethyl-6-fluoro-N-{8-fluoro-2-methylimidazo[1,2-a]pyridin-6-yl}-4-(4-methylpiperazin-1-yl) indazole-7-carboxamide], in assay [1], the IC50 was 100 to 1000 nM and the AC50 was 1000 to 10000 nM. For the same compound, in assay [2], the AC50 was in the range of 100 to 1000 nM and the IC50 is less than 100 nM.
With `CCn1cc2c(N3CC4(CCCN4)C3)ccc(C(=O)Nc3cc(F)c4nc(C)cn4c3)c2n1` [Compound 482, 4-{2,5-diazaspiro[3.4]octan-2-yl}-2-ethyl-N-{8-fluoro-2-methylimidazo[1,2-a]pyridin-6-yl}indazole-7-carboxamide], in assay [1], the IC50 is more than 10000 nM and the AC50 is more than 10000 nM. Besides, in assay [2], the AC50 was 1000 to 10000 nM and the IC50 fell in the range of 1000 to 10000 nM.
For `Cc1cc(NC(=O)c2ccc(N3CCNCC3)c3cn(C)nc23)c(O)c2cn(C)nc12` [Compound 484, N-(4-hydroxy-2,7-dimethylindazol-5-yl)-2-methyl-4-(piperazin-1-yl) indazole-7-carboxamide], in assay [1], the IC50 was more than 10000 nM and the AC50 was more than 10000 nM. In assay [2], the AC50 is more than 10000 nM and the IC50 is more than 10000 nM.
As to `Cc1cn2cc(NC(=O)c3ccc(N4CCOCC4)c4cn(C)nc34)cc(F)c2n1` [Compound 486, N-{8-fluoro-2-methylimidazo[1,2-a]pyridin-6-yl}-2-methyl-4-(morpholin-4-yl) indazole-7-carboxamide], in assay [1], the IC50 was in the range of 100 to 1000 nM and the AC50 lay in the range of 100 to 1000 nM. In addition, in assay [2], the AC50 fell in the range of 100 to 1000 nM and the IC50 is 100 to 1000 nM.
`Cc1cn2cc(NC(=O)c3ccc(N4CCCC4)c4cn(C)nc34)cc(F)c2n1` [Compound 487, N-{8-fluoro-2-methylimidazo[1,2-a]pyridin-6-yl}-2-methyl-4-(pyrrolidin-1-yl) indazole-7-carboxamide]: the IC50 in assay [1] and in assay [2] was 1000 to 10000 nM throughout. Also, the AC50 in assay [1] and in assay [2] was 1000 to 10000 nM throughout.
Regarding `Cc1nnc2ccc(NC(=O)c3ccc(N4CCNCC4)c4cn(C)nc34)cn12` [Compound 488, 2-methyl-N-{3-methyl-[1,2,4]triazolo[4,3-a]pyridin-6-yl}-4-(piperazin-1-yl) indazole-7-carboxamide], the IC50 in assay [1] and in assay [2] was more than 10000 nM each time. The AC50 in assay [1] and in assay [2] was more than 10000 nM throughout.
As to `Cc1nc2cc(NC(=O)c3ccc(N4CCNCC4)c4cn(C)nc34)ccn2n1` [Compound 489, 2-methyl-N-{2-methyl-[1,2,4]triazolo[1,5-a]pyridin-7-yl}-4-(piperazin-1-yl) indazole-7-carboxamide], the IC50 in assay [1] and in assay [2] was more than 10000 nM throughout. For the same compound, the AC50 in assay [1] and in assay [2] was more than 10000 nM each time.
Turning to `Cc1cn2cc(NC(=O)c3ccc(N4CCNCC4)c4c[nH]nc34)cc(F)c2n1` [Compound 490, N-{8-fluoro-2-methylimidazo[1,2-a]pyridin-6-yl}-4-(piperazin-1-yl)-2H-indazole-7-carboxamide], in assay [1], the half-maximal inhibitory concentration (IC50) is more than 10000 nM and the AC50 was more than 10000 nM. In assay [2], the AC50 fell in the range of 1000 to 10000 nM and the IC50 lay within 1000 to 10000 nM.
In the case of `CCn1cc2c(N3CC4(CCNC4)C3)ccc(C(=O)Nc3cc(F)c4nc(C)cn4c3)c2n1` [Compound 491, 4-{2,6-diazaspiro[3.4]octan-2-yl}-2-ethyl-N-{8-fluoro-2-methylimidazo[1,2-a]pyridin-6-yl}indazole-7-carboxamide], the IC50 fell in the range of 1000 to 10000 nM in assay [1] and 100 to 1000 nM in assay [2]. Moreover, the AC50 in assay [1] is more than 10000 nM; in assay [2], 1000 to 10000 nM.
Consider `CCn1cc2c(N3CC4(CCNCC4)C3)ccc(C(=O)Nc3cc(F)c4nc(C)cn4c3)c2n1` [Compound 492, 4-{2,7-diazaspiro[3.5]nonan-2-yl}-2-ethyl-N-{8-fluoro-2-methylimidazo[1,2-a]pyridin-6-yl}indazole-7-carboxamide], for which, in assay [1], the IC50 was 1000 to 10000 nM and the AC50 was more than 10000 nM. Further, in assay [2], the half-maximal activity concentration (AC50) is 1000 to 10000 nM and the IC50 lay in the range of 100 to 1000 nM.
Take `CN1CCN(c2ccc(C(=O)Nc3cc(F)c4nc(CO)oc4c3)c3nn(C)cc23)CC1` [Compound 494, N-[4-fluoro-2-(hydroxymethyl)-1,3-benzoxazol-6-yl]-2-methyl-4-(4-methylpiperazin-1-yl) indazole-7-carboxamide]: in assay [1], the IC50 is more than 10000 nM and the AC50 was more than 10000 nM. Further, in assay [2], the AC50 was more than 10000 nM and the IC50 was more than 10000 nM.
Turning to `CO[C@H]1C[C@H](n2cc3c(N4CCNCC4)ccc(C(=O)Nc4cc(F)c5nc(C)cn5c4)c3n2)C1` [Compound 496, Cis-N-(8-fluoro-2-methylimidazo[1,2-a]pyridin-6-yl)-2-((1s,3s)-3-methoxycyclobutyl)-4-(piperazin-1-yl)-2H-indazole-7-carboxamide 2,2,2-trifluoroacetate], in assay [1], the IC50 is more than 10000 nM and the AC50 was more than 10000 nM. Further, in assay [2], the AC50 was more than 10000 nM and the IC50 is more than 10000 nM.
As to `Cc1cn2cc(NC(=O)c3ccc(N4CCNCC4)c4cn(CC5COC5)nc34)cc(F)c2n1` [Compound 497, N-{8-fluoro-2-methylimidazo[1,2-a]pyridin-6-yl}-2-(oxetan-3-ylmethyl)-4-(piperazin-1-yl) indazole-7-carboxamide], in assay [1], the IC50 was 100 to 1000 nM and the concentration at half-maximal activity (AC50) fell in the range of 100 to 1000 nM. Further, in assay [2], the AC50 was less than 100 nM and the IC50 is less than 100 nM.
Regarding `CCn1cc2c(OC3CCNC3)ccc(C(=O)Nc3cc(F)c4nc(C)cn4c3)c2n1` (stereo not shown) [Compound 498, 2-ethyl-N-{8-fluoro-2-methylimidazo[1,2-a]pyridin-6-yl}-4-(pyrrolidin-3-yloxy) indazole-7-carboxamide], in assay [1], the IC50 was 100 to 1000 nM and the AC50 lay in the range of 1000 to 10000 nM. For the same compound, in assay [2], the AC50 lay in the range of 100 to 1000 nM and the IC50 fell in the range of 100 to 1000 nM.
